From patent US9463174B2, “Pharmaceutical composition for the treatment of type-1 diabetes” (priority 2008, dated 2016)
Entries after “also recorded” stand apart in the source; their conditions may differ.

Experiments:
8.3-TCR NOD mice = test: Prevention of diabetes in transgenic 8.3-TCR NOD mice; assay type: in vivo
Description: TCR NOD mice were used to investigate the potential role of GABA on the T-cell function. The 8.3-TCR NOD mouse is a severe T1D mouse model (Amrani A et al, 1999 Clin Invest. 103(8):1201-9) and developed diabetic hyperglycemia at about age of 11 wks (FIG. 8A). Autoimmune diabetes in NOD mice results from destruction of pancreatic b-cells by T lymphocytes. The CD8+ cytotoxic T lymphocytes is thought to be the initial beta-cell insult in diabetes in which the initiation is a Fas-dependent process (Amrani A et al, 1999 Clin Invest. 103(8):1201-9). The 8.3-TCR NOD mouse monoclonal T-cells bearing a T-cell receptor (8.3-TCR) that is representative of TCRs used by CD8+ cytotoxic T lymphocytes propagated from the earliest insulitic lesions of NOD mice.
GAD65 has long been considered as a major antigen initiating the pathogenesis in T1D. Given that the protective effects of GABA in the development of diabetes in the diabetic animal models, I proposed that as the rate limiting enzyme of GABA synthesis, GAD has important role in maintaining islet function. To determine if treatment of GABA has effects on the expression levels of GAD65, we performed pancreatic GAD staining in the TCR transgenic NOD mice.
The techniques used for the in vivo and in vitro studies in this embodiment of the disclosure are also described. CD1 mice (Charles River Laboratories, St Constant, Canada), NOD mice and transgenic TCR NOD mice (Jackson Laboratory, USA) were housed under a controlled temperature and a 12-h light/12-h dark cycle in the St. Michael's Hospital Animal facility with free access to food (normal rodent chow) and water, except where noted. All procedures were conducted according to protocols and guidelines approved by the Canadian Council of Animal Care and the St. Michael's Hospital Animal Care committee. Mice were treated with GABA by daily intraperitoneal (i.p.) injection of 20·g GABA per mouse to reach ˜200 μM circulation concentration and PBS as control. The daily treatment is continuously conducted during 60-day experimental period. One wk after the GABA and PBS treatment, diabetes was induced in both groups by i.p.-injection of low-dose streptozotocin (STZ, Sigma Chemical Co., St. Louis, Mo. 40 mg/kg body weight) for 5 consecutive days. The development of hyperglycemia was monitored by measuring blood glucose from the tail vein every third day following STZ injections using an Ascensia ELITE® XL glucose meter. For some studies, overtly diabetic mice induced by STZ and without GABA treatment were divided into two groups: one group started receiving daily i.p. injection of 20·g GABA whereas other group received only PBS. The treatment was continued for 75 days. The handling of the NOD mice were similar to those CD1 mice except the STZ injection. The NOD mice have a susceptibility to spontaneous development of autoimmune T1D. The TCR transgenic 8.3-NOD mice have a markedly accelerated disease (J. Vergdaguer et al, 1997 J Exp Med. 186(10):1663-76).
Following dewaxing, […] as described previously (Wang Q, Brubaker P L 2002 Diabetologia 45:1263-1273), endogenous peroxidase activity was quenched by incubating sections in 0.3% H2O2 in water for 30 min and antigen retrieval was performed by heating slides in 10 mM sodium citrate buffer, pH 6.0, at ˜70° C. for 30 min. […]

INS-1 cells = test: Cell proliferation assay by 3H-thymidine incorporation; assay type: cell-based
Method: INS-1 cells were grown to 80-85% confluence in 12-well plates, serum-starved for 24 h and then treated with GABA at various concentrations in the presence of 3 mmol/l glucose. Some cells were also pre-incubated with GABA receptor antagonist for 20 h prior before the treatment. DNA synthesis was measured by incubating cells with 37 kBq/ml 3H-methylthymidine (specific activity: 3000 GBq/mmol; Amersham Pharmacia Biotech) for 4 h. Cells were then washed twice in ice-cold PBS and incubated for 30 min in 1 ml of 5% trichloroacetic acid on ice to precipitate the DNA. The liquid layer was removed by aspiration and 250 μl of 0.1 mol/l sodium hydroxide was added to the cells for 30 min at room temperature. During this time the container was gently shaken. The solubilised material was then transferred to 5 ml of scintillant, and radioactive counts were determined by liquid scintillation counting.

Question: For `NCCCC(=O)O` [GABA, gamma-aminobutyric acid], which alpha-cell mass (8.3-TCR NOD mice; GABA-treated TCR-NOD mice) is on record?
Answer: Its alpha-cell mass is “largely reserved”.

Question: And the “islet mass / beta-cell mass” value (8.3-TCR NOD mice; GABA-treated TCR-NOD mice)?
Answer: Its value is “largely reserved”.

Question: What about the “pancreatic insulin and GAD65/67 staining” value (8.3-TCR NOD mice; TCR transgenic NOD mice) of the same molecule?
Answer: Its value is “largely reserved the islet beta-cell mass and the intact association with GAD65; also recorded: reserves insulin and GAD65/67 content”.

Question: And the “development of diabetic hyperglycemia” value (8.3-TCR NOD mice; daily GABA vs saline-treated)?
Answer: The value was “completely prevented the development of diabetic hyperglycemia; also recorded: completely prevents diabetic hyperglycemia”.

Question: And the “lymphocytes (T-cell) infiltration in pancreatic islets” value (8.3-TCR NOD mice; vs PBS-treated)?
Answer: Its value is “dramatically blocked; also recorded: obviously diminished”.

Question: What about the “3H-thymidine incorporation into INS-1 cells” value (INS-1 cells; GABA 100 mM, time-dependent manner) of the same molecule?
Answer: The value was “increased the ^3H-thymidine incorporation”.

Question: And the “INS-1 cell proliferation (3H-thymidine incorporation)” value (INS-1 cells; various concentrations, 3 mmol/l glucose)?
Answer: Its value is “dose-dependently increased INS-1 cell proliferation”.
